Measured values taken from patent US11123355B2, “Antiviral benzyl-amine phosphodiamide compounds” (Merck Sharp & Dohme Corp., priority 2016, dated 2021).
Where two headings read alike, the source gives them in different places.

Tested on: HIV-1 (H9/IIB strain)
Assay: Multiple Round HIV-1 Infection Assay (Viking Assay) in MT4-GFP cells
Type: cell-based
Conditions: inhibition of reproductive ratio R0
Description: Assessing antiviral potency in a Multiple Round HIV-1 Infection Assay (Viking Assay) The antiviral activity of the tenofovir prodrugs of the Examples herein was assessed in an assay that measures the rate of replication of HIV in cell culture, termed the Viking assay (VIral KINetics in Green cells) and performed as follows. HIV-1 replication was monitored using MT4-gag-GFP clone D3 (hereafter designated MT4-GFP), which are MT-4 cells modified to harbor a GFP reporter gene, the expression of which is dependent on the HIV-1 expressed proteins tat and rev. Productive infection of an MT4-GFP cell with HIV-1 results in GFP expression approximately 24 h post-infection. MT4-GFP cells were maintained at 37° C./5% CO2/90% relative humidity in RPMI 1640 supplemented with 10/o fetal bovine serum, 100 U/ml penicillin/streptomycin, and 400 μg/ml G418 to maintain the reporter gene. For infections, MT4-GFP cells were placed in the same medium lacking G418 and infected overnight with HIV-1 (H9/IIB strain) virus at an approximate multiplicity of infection of 0.01 in the same incubation conditions. Cells were then washed and re-suspended in either RPMI 1640 supplemented with 10% or 50% normal human serum (NHS) at 1.6×10^5 cells/mL (10% NHS or 50% NHS, respectively). Compound plates were prepared by dispensing compounds dissolved in DMSO into wells of 384 well poly-D-lysine-coated plates (0.2 μl/well) using an ECHO acoustic dispenser. Each compound was tested in a 10-point serial 3-fold dilution (typical final concentrations: 8.4 μM-0.42 nM). Controls included no inhibitor (DMSO only) and a combination of three antiviral agents (efavirenz, indinavir, an in-house integrase strand transfer inhibitor at final concentrations of 4 μM each). Cells were added (50 μL/well) to compound plates and the infected cells were maintained at 37° C./5% CO2/90% relative humidity.
Infected cells were quantified at two time points, ˜48 h and ˜72 h post-infection, by counting the number of green cells in each well using an Acumen eX3 scanner. The increase in the number of green cells over ˜24 h period gives the reproductive ratio, R0, which is typically 5-15 and has been shown experimentally to be in logarithmic phase (data not shown). Inhibition of R0 is calculated for each well, and IC50s determined by non-linear 4-parameter curve fitting.

[1] = MT4-GFP cells infected with HIV-1, 10% normal human serum, read-out: Viking, IC50 (10% NHS)
[2] = MT4-GFP cells infected with HIV-1, 50% normal human serum, read-out: Viking, IC50 (50% NHS)
[3] = Human immunodeficiency virus 1, MT4-GFP cells infected with HIV-1, 10% normal human serum, read-out: Viking, IC50 (10% NHS)
[4] = Human immunodeficiency virus 1, MT4-GFP cells infected with HIV-1, 50% normal human serum, read-out: Viking, IC50 (50% NHS)

| Molecule | IC50 [1] [µM] | IC50 [2] [µM] | IC50 [3] [µM] | IC50 [4] [µM] |
| --- | --- | --- | --- | --- |
| CCCOC(=O)C(C)(C)NP(=O)(CO[C@H](C)Cn1cnc2c(N)ncnc21)N[C@@H](C)c1ccc(OC(F)(F)F)cc1 (stereo partly drawn) [Example 19B, propyl 2-(((R)-((((R)-1-(6-amino-9H-purin-9-yl)propan-2-yl)oxy)methyl)(((S)-1-(4-(trifluoromethoxy)phenyl)ethyl)amino)phos-phoryl)amino)-2-methylpropanoate and propyl 2-(((S)-((((R)-1-(6-amino-9H-purin-9-yl)propan-2-yl)oxy)methyl)(((S)-1-(4-(trifluoromethoxy)phenyl)ethyl)amino)phos-phoryl)amino)-2-methylpropanoate] | 0.084 | 0.36 |  |  |
| propyl 2-(((R)-((((R)-1-(6-amino-9H-purin- 9-yl)propan-2-yl)oxy)methyl)((4- cyanobenzyl)amino)phosphoryl)amino)-2- methylpropanoate and propyl 2-(((S)-((((R)-1-(6-amino-9H-purin- 9-yl)propan-2-yl)oxy)methyl)((4- cyanobenzyl)amino)phosphoryl)amino)-2- methylpropanoate [Example 6B] | 0.25 | 0.85 |  |  |
| CCCOC(=O)C(C)(C)N[P@@](=O)(CO[C@H](C)Cn1cnc2c(N)ncnc21)N[C@H](C)c1ccc(OC)cc1 [Example 15A, propyl 2-(((R)-((((R)-1-(6-amino-9H-purin-9-yl)propan-2-yl)oxy)methyl)(((R)-1-(4-methoxyphenyl)ethyl)amino)phosphoryl)a-mino)-2-methylpropanoate and propyl 2-(((S)-((((R)-1-(6-amino-9H-purin-9-yl)propan-2-yl)oxy)methyl)(((R)-1-(4-methoxyphenyl)ethyl)amino)phosphoryl)a-mino)-2-methylpropanoate] | 0.074 | 0.41 |  |  |
| CCCOC(=O)C(C)(C)N[P@@](=O)(CO[C@H](C)Cn1cnc2c(N)ncnc21)N[C@H](c1cccc(F)c1)C(F)(F)F [Example 22B, propyl 2-(((R)-((((R)-1-(6-amino-9H-purin-9-yl)propan-2-yl)oxy)methyl)(((R)-2,2,2-trifluoro-1-(3-fluorophenyl)ethyl)amino)phosphoryl)ami-no)-2-methylpropanoate and propyl 2-(((S)-((((R)-1-(6-amino-9H-purin-9-yl)propan-2-yl)oxy)methyl)(((R)-2,2,2-trifluoro-1-(3-fluorophenyl)ethyl)amino)phosphoryl)ami-no)-2-methylpropanoate] | 0.042 | 0.33 |  |  |
| CCCOC(=O)C(C)(C)NP(=O)(CO[C@H](C)Cn1cnc2c(N)ncnc21)N(C)Cc1ccc(C(C)C)cc1 (stereo partly drawn) [Example 32B, propyl 2-(((R)-((((R)-1-(6-amino-9H-purin-9-yl)propan-2-yl)oxy)methyl)((4-isopropylbenzyl)(methyl)amino)phos-phoryl)amino)-2-methylpropanoate and propyl 2-(((S)-((((R)-1-(6-amino-9H-purin-9-yl)propan-2-yl)oxy)methyl)((4-isopropylbenzyl)(methyl)amino)phos-phoryl)amino)-2-methylpropanoate] | 0.01 | 0.041 |  |  |
| CCCOC(=O)C(C)(C)N[P@@](=O)(CO[C@H](C)Cn1cnc2c(N)ncnc21)N[C@H](c1ccc(OC(F)(F)F)cc1)C(F)(F)F (single isomer, unassigned) [Example 27B] | 0.052 | 0.25 |  |  |
| CCCOC(=O)C(C)(C)N[P@@](=O)(CO[C@H](C)Cn1cnc2c(N)ncnc21)N[C@@H](c1ccc(C#N)cc1)C(F)(F)F.CCCOC(=O)C(C)(C)N[P@](=O)(CO[C@H](C)Cn1cnc2c(N)ncnc21)N[C@@H](c1ccc(C#N)cc1)C(F)(F)F (mixture of isomers) [Example 24B, propyl 2-(((R)-((((R)-1-(6-amino-9H-purin-9-yl)propan-2-yl)oxy)methyl)(((S)-1-(4-cyanophenyl)-2,2,2-trifluoroethyl)amino)phosphoryl)amino)-2-methylpropanoate and propyl 2-(((S)-((((R)-1-(6-amino-9H-purin-9-yl)propan-2-yl)oxy)methyl)(((S)-1-(4-cyanophenyl)-2,2,2-trifluoroethyl)amino)phosphoryl)amino)-2-methylpropanoate] | 0.022 | 0.17 |  |  |
| CCCOC(=O)C(C)(C)N[P@](=O)(CO[C@H](C)Cn1cnc2c(N)ncnc21)N(C)[C@H](C)c1ccc(OC(F)(F)F)cc1 [Example 33A, propyl 2-(((R)-((((R)-1-(6-amino-9H-purin-9-yl)propan-2-yl)oxy)methyl)(methyl((R)-1-(4-(trifluoromethoxy)phenyl)ethyl)amino)phos-phoryl)amino)-2-methylpropanoate and propyl 2-(((S)-((((R)-1-(6-amino-9H-purin-9-yl)propan-2-yl)oxy)methyl)(methyl((R)-1-(4-(trifluoromethoxy)phenyl)ethyl)amino)phos-phoryl)amino)-2-methylpropanoate] | 0.025 | 0.084 |  |  |
| CC(C)OC(=O)C(C)(C)N[P@@](=O)(CO[C@H](C)Cn1cnc2c(N)ncnc21)NC1(c2ccc(Cl)cc2)CC1 [Example 37A, isopropyl 2-(((R)-((((R)-1-(6-amino-9H-purin-9-yl)propan-2-yl)oxy)methyl)((1-(4-chlorophenyl)cyclopropyl)amino)phos-phoryl)amino)-2-methylpropanoate and isopropyl 2-(((S)-((((R)-1-(6-amino-9H-purin-9-yl)propan-2-yl)oxy)methyl)((1-(4-chlorophenyl)cyclopropyl)amino)phos-phoryl)amino)-2-methylpropanoate] | 0.11 | 0.72 |  |  |
| CCCOC(=O)C(C)(C)NP(=O)(CO[C@H](C)Cn1cnc2c(N)ncnc21)N[C@H](C)c1ccc(OC(F)(F)F)cc1 (stereo partly drawn) [Example 3A] |  |  | 0.08 | 0.78 |
| CCCOC(=O)C(C)(C)N[P@@](=O)(CO[C@H](C)Cn1cnc2c(N)ncnc21)NCc1ccc(OC(F)(F)F)cc1 [Example 7B, propyl 2-(((R)-((((R)-1-(6-amino-9H-purin-9-yl)propan-2-yl)oxy)methyl)((4-(trifluoromethoxy)benzyl)amino)phos-phoryl)amino)-2-methylpropanoate and propyl 2-(((S)-((((R)-1-(6-amino-9H-purin-9-yl)propan-2-yl)oxy)methyl)((4-(trifluoromethoxy)benzyl)amino)phos-phoryl)amino)-2-methylpropanoate] | 0.045 | 0.3 |  |  |
| CCCOC(=O)C(C)(C)NP(=O)(CO[C@H](C)Cn1cnc2c(N)ncnc21)N(C)[C@H](C)c1ccc(Cl)cc1 (single isomer, unassigned) [Example 2B] |  |  | 0.002 | 0.0096 |
| CCCOC(=O)C(C)(C)NP(=O)(CO[C@H](C)Cn1cnc2c(N)ncnc21)N[C@H](c1ccc(OC(F)(F)F)cc1)C(F)(F)F (stereo partly drawn) [Example 4B] | 0.016 | 0.16 |  |  |
| propyl 2-(((R)-((((R)-1-(6-amino-9H-purin- 9-yl)propan-2-yl)oxy)methyl)(((S)-1-(p- tolyl)ethyl)amino)phosphoryl)amino)-2- methylpropanoate and propyl 2-(((S)-((((R)-1-(6-amino-9H-purin- 9-yl)propan-2-yl)oxy)methyl)(((S)-1-(p- tolyl)ethyl)amino)phosphoryl)amino)-2- methylpropanoate [Example 18A] | 0.013 | 0.14 |  |  |
| CCCOC(=O)C(C)(C)N[P@@](=O)(CO[C@H](C)Cn1cnc2c(N)ncnc21)N[C@H](c1cccc(F)c1)C(F)(F)F [Example 22A, propyl 2-(((R)-((((R)-1-(6-amino-9H-purin-9-yl)propan-2-yl)oxy)methyl)(((R)-2,2,2-trifluoro-1-(3-fluorophenyl)ethyl)amino)phosphoryl)ami-no)-2-methylpropanoate and propyl 2-(((S)-((((R)-1-(6-amino-9H-purin-9-yl)propan-2-yl)oxy)methyl)(((R)-2,2,2-trifluoro-1-(3-fluorophenyl)ethyl)amino)phosphoryl)ami-no)-2-methylpropanoate] | 0.0081 | 0.074 |  |  |
